The subject of one test is EVSA-T. Description: cells. As to conditions: Homo sapiens, EVSA-T. The test is classed as functional, cell-based, Homo sapiens.
The subject of a further test is NCCIT. Description: SANGER: Inhibition of human NCCIT cell growth in a cell viability assay. As to conditions: Homo sapiens, NCCIT. The test is classed as functional, cell-based.
A further test deals with NCI-H1522. Description: cells. In kind it is functional, cell-based, Homo sapiens. As to conditions: Homo sapiens, NCI-H1522.
Another test has as its system NCI-H322M. The experiment in a line: cells. The test is classed as functional, cell-based, Homo sapiens. Conditions: Homo sapiens, NCI-H322M.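 Further: cell viability assay measuring inhibition of growth of human NCI-H322M cells.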
In a further test the test system is NCI-H64. The experiment in a line: cells. In kind it is functional, cell-based, Homo sapiens. Conditions: Homo sapiens, NCI-H64.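 Further: growth inhibition of NCI-H64 cells, read out with a cell viability assay.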
The next test concerns RL95-2. Description: cells. As to conditions: Homo sapiens. The test is classed as functional, cell-based.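 Further: RL95-2 growth inhibition determined through a cell viability readout.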
The test system of another test is SIMA. The experiment in a line: cells. The test is classed as functional, cell-based, Homo sapiens. Conditions: Homo sapiens, SIMA.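 Further: growth inhibition of SIMA cells, measured with a cell viability readout.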
A further test relates to SR. The experiment in a line: cells. The test is classed as functional, cell-based, Homo sapiens. Conditions: Homo sapiens, SR.
In a further test the test system is SU-DHL-1. The experiment in a line: SANGER: Inhibition of human SU-DHL-1 cell growth in a cell viability assay. The test is classed as functional, cell-based. As to conditions: Homo sapiens, SU-DHL-1.
The subject of a further test is TE-441-T. Description: cells. Conditions: Homo sapiens, TE-441-T. The test is classed as functional, cell-based, Homo sapiens.
The test system of another test is CESS. Description: SANGER: Inhibition of human CESS cell growth in a cell viability assay. Conditions: Homo sapiens, CESS. In kind it is functional, cell-based.

pIC50: −log10 of the molar value. Where only a bound is given, the exact number is not on record here.

Broadly, the pIC50 is −log10 of the IC50, conventionally taken in molar units.

Description for EVSA-T: SANGER: Inhibition of human EVSA-T cell growth in a cell viability assay.
Description for NCI-H1522: SANGER: Inhibition of human NCI-H1522 cell growth in a cell viability assay.
Description for NCI-H322M: SANGER: Inhibition of human NCI-H322M cell growth in a cell viability assay.
Description for NCI-H64: SANGER: Inhibition of human NCI-H64 cell growth in a cell viability assay.
Description for RL95-2: SANGER: Inhibition of human RL95-2 cell growth in a cell viability assay.
Description for SIMA: SANGER: Inhibition of human SIMA cell growth in a cell viability assay.
Description for SR: SANGER: Inhibition of human SR cell growth in a cell viability assay.
Description for TE-441-T: SANGER: Inhibition of human TE-441-T cell growth in a cell viability assay.

For the compound `OCCCNc1cc(-c2ccnc(Nc3cccc(Cl)c3)n2)ccn1`, the pIC50 in the test with EVSA-T was 6.87; with NCCIT, 7.31; in the test on NCI-H1522 it was less than 6.59; in the test with NCI-H322M it was less than 6.59; in the test with NCI-H64 it was 7.04; in the test with RL95-2, 6.75. Besides, the pIC50 is less than 6.59 in the test with SIMA; 7.59 with SR; 6.68 in the test with SU-DHL-1; 7.42 in the test with TE-441-T; 7.40 in the test with CESS.

These data come from ChEMBL document CHEMBL1201861, “Genomics of Drug Sensitity in Cancer screening data, Wellcome Trust Sanger Institute”.
